Reference: US10988523B2, “Modified lipidated Relaxin B chain peptides and their therapeutic use” (Sanofi, priority 2018, dated 2021)
*1 amine or outer side, *2 acyl side, *3 side chain or, on linkers, in order; H or OH if unused. Where a SMILES comes first, the peptide text is derived from it. Side-chain parts run from the residue outwards. [ ]: non-standard residue; d: D form. The star is where a group is joined. αMeW = C[C@](N)(Cc1c[nH]c2ccccc12)C(=O)O; γGlu = O=C(O)[C@H](CCC(=O)[*:2])N[*:1]; Stearoyl = CCCCCCCCCCCCCCCCCC(=O)*; Palmitoyl = CCCCCCCCCCCCCCCC(=O)*; Cit = NC(=O)NCCC[C@H](N)C(=O)O; PEG4 = NCCOCCOCCOCCOCCC(=O)O; αMeK = C[C@](N)(CCCCN)C(=O)O; Nle = CCCC[C@H](N)C(=O)O; AEEA = NCCOCCOCC(=O)O; Aib = CC(C)(N)C(=O)O

Biological target: T1, RXFP1 (Homo sapiens, UniProt Q9HBX9)
T1 construct: OVCAR5 cells expressing endogenous RXFP1; endogenous in cells; host or cells: OVCAR5 cells
T1 sequence (Q9HBX9 1-757): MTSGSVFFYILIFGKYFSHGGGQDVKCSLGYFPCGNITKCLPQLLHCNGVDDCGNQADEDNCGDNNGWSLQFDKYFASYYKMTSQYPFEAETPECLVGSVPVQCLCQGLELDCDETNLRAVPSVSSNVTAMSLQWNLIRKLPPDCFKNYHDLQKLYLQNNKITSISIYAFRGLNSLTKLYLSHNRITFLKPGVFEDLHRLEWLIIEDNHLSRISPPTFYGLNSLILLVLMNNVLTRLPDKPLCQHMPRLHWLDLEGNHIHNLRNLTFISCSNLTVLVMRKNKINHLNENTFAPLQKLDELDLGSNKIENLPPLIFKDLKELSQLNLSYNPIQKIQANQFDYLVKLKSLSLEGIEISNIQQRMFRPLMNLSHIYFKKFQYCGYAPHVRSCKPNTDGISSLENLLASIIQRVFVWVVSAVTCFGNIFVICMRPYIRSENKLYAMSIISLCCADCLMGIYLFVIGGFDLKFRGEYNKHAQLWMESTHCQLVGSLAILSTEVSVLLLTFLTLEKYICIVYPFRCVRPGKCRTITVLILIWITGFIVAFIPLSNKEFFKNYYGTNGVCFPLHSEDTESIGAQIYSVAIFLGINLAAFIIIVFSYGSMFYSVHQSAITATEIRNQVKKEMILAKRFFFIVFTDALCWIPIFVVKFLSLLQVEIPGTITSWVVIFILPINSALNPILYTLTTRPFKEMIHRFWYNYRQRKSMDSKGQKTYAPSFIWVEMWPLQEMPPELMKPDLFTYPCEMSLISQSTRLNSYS
Test: OVCAR5 cAMP assay (HTRF), RXFP1 agonist activity
Assay type: cell-based
Settings: for Emax: OVCAR-5, maximal cAMP relative to H2-relaxin maximum (100%), read-out: EMax, OVCAR 5 cells (cAMP); for EC50: OVCAR5 cells, cAMP HTRF, read-out: EC50 (nM), OVCAR 5 cells (cAMP)
In short: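 OVCAR5 cells (endogenous RXFP1) pretreated 40 min at 37° C with 1 mM IBMX, then exposed to peptides in serum-free medium for 30 min at 37° C. Lysate cAMP read by HTRF; EC50 from variable-slope sigmoidal fit; Emax as % of H2-relaxin maximal cAMP in same run.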

Row | SMILES | Emax | EC50
1 | CCCCCCCCCCCCCCCC(=O)N[C@@H](CCC(=O)NCCCC[C@H](NC(=O)CC[C@H](NC(=O)CC[C@H](NC(=O)COCCOCCNC(=O)COCCOCCNC(=O)COCCOCCNC(=O)COCCOCCNC(=O)[C@H](CCCCNC(C)=O)NC(=O)[C@H](CCCCN)NC(=O)[C@H](CCCNC(=N)N)NC(=O)C(C)(C)NC(=O)[C@H](CO)NC(=O)[C@H](Cc1c[nH]c2ccccc12)NC(=O)[C@@H](NC(=O)[C@H](CO)NC(=O)[C@H](CCCC)NC(=O)CNC(=O)[C@H](CCC(=O)O)NC(=O)C(C)(C)NC(=O)C(C)(C)NC(=O)[C@@H](NC(=O)[C@H](CCC(N)=O)NC(=O)[C@H](C)NC(=O)[C@H](CCCNC(=N)N)NC(=O)[C@@H](NC(=O)[C@H](CCCCN)NC(=O)[C@H](CCC(=O)O)NC(=O)[C@H](CCCNC(=N)N)NC(=O)CNC(=O)[C@H](CCC(=O)O)NC(=O)[C@H](CC(C)C)NC(C)=O)C(C)C)[C@@H](C)CC)[C@@H](C)O)C(=O)O)C(=O)O)C(N)=O)C(=O)O [compound 121] (Ac-LEGREKVRAQI[Aib][Aib]EG[Nle]STWS[Aib]RKK(Ac)[AEEA][AEEA][AEEA][AEEA][γGlu][γGlu]K([γGlu-Palmitoyl])-NH2) | 91% | 
2 | CCCCCCCCCCCCCCCCCC(=O)N[C@@H](CCC(=O)N[C@@H](CCC(=O)N[C@@H](CCC(=O)N[C@@H](CCC(=O)N[C@@H](CCC(=O)NCCCC[C@H](NC(=O)CCOCCOCCOCCOCCNC(=O)CCOCCOCCOCCOCCNC(=O)[C@H](CCCCN)NC(=O)[C@H](CCCCN)NC(=O)[C@H](CCCCN)NC(=O)[C@H](CCCNC(=N)N)NC(=O)C(C)(C)NC(=O)[C@H](CO)NC(=O)[C@H](Cc1c[nH]c2ccccc12)NC(=O)[C@@H](NC(=O)[C@H](CO)NC(=O)[C@H](CCCC)NC(=O)CNC(=O)[C@H](CCC(=O)O)NC(=O)C(C)(C)NC(=O)C(C)(C)NC(=O)[C@@H](NC(=O)[C@H](CCC(N)=O)NC(=O)[C@H](C)NC(=O)[C@H](CCCNC(=N)N)NC(=O)[C@@H](NC(=O)[C@H](CCCCN)NC(=O)[C@H](CCC(=O)O)NC(=O)[C@H](CCCNC(=N)N)NC(=O)CNC(=O)[C@H](CCC(=O)O)NC(=O)[C@H](CC(C)C)NC(C)=O)C(C)C)[C@@H](C)CC)[C@@H](C)O)C(N)=O)C(=O)O)C(=O)O)C(=O)O)C(=O)O)C(=O)O [compound 122] (Ac-LEGREKVRAQI[Aib][Aib]EG[Nle]STWS[Aib]RKKK[PEG4][PEG4]K([γGlu-γGlu-γGlu-γGlu-γGlu-Stearoyl])-NH2) | 93% | 
3 | CCCCCCCCCCCCCCCCCC(=O)N[C@@H](CCC(=O)N[C@@H](CCC(=O)N[C@@H](CCC(=O)NCCCC[C@H](NC(=O)CCOCCOCCOCCOCCNC(=O)[C@H](CCCCNC(C)=O)NC(=O)[C@H](CCCCN)NC(=O)[C@H](CCCNC(=N)N)NC(=O)C(C)(C)NC(=O)[C@H](CO)NC(=O)[C@H](Cc1c[nH]c2ccccc12)NC(=O)[C@@H](NC(=O)[C@H](CO)NC(=O)[C@H](CCCC)NC(=O)CNC(=O)[C@H](CCC(=O)O)NC(=O)C(C)(C)NC(=O)C(C)(C)NC(=O)[C@@H](NC(=O)[C@H](CCCCNC(C)=O)NC(=O)[C@H](C)NC(=O)[C@H](CCCNC(=N)N)NC(=O)[C@@H](NC(=O)[C@H](CCCCN)NC(=O)[C@H](CCC(=O)O)NC(=O)[C@H](CCCNC(=N)N)NC(=O)CNC(=O)[C@H](CCC(=O)O)NC(=O)[C@H](CC(C)C)NC(C)=O)C(C)C)[C@@H](C)CC)[C@@H](C)O)C(N)=O)C(=O)O)C(=O)O)C(=O)O [compound 123] (Ac-LEGREKVRAK(Ac)I[Aib][Aib]EG[Nle]STWS[Aib]RKK(Ac)[PEG4]K([γGlu-γGlu-γGlu-Stearoyl])-NH2) | 88% | 
4 | CCCCCCCCCCCCCCCCCC(=O)N[C@@H](CCC(=O)N[C@@H](CCC(=O)N[C@@H](CCC(=O)NCCCC[C@H](NC(=O)CCOCCOCCOCCOCCNC(=O)CCOCCOCCOCCOCCNC(=O)[C@H](CCCCNC(C)=O)NC(=O)[C@H](CCCCN)NC(=O)[C@H](CCCNC(=N)N)NC(=O)C(C)(C)NC(=O)[C@H](CO)NC(=O)[C@H](Cc1c[nH]c2ccccc12)NC(=O)[C@@H](NC(=O)[C@H](CO)NC(=O)[C@H](CCCC)NC(=O)CNC(=O)[C@H](CCC(=O)O)NC(=O)C(C)(C)NC(=O)C(C)(C)NC(=O)[C@@H](NC(=O)[C@H](CCCCNC(C)=O)NC(=O)[C@H](C)NC(=O)[C@H](CCCNC(=N)N)NC(=O)[C@@H](NC(=O)[C@H](CCCCN)NC(=O)[C@H](CCC(=O)O)NC(=O)[C@H](CCCNC(=N)N)NC(=O)CNC(=O)[C@H](CCC(=O)O)NC(=O)[C@H](CC(C)C)NC(C)=O)C(C)C)[C@@H](C)CC)[C@@H](C)O)C(N)=O)C(=O)O)C(=O)O)C(=O)O [compound 124] (Ac-LEGREKVRAK(Ac)I[Aib][Aib]EG[Nle]STWS[Aib]RKK(Ac)[PEG4][PEG4]K([γGlu-γGlu-γGlu-Stearoyl])-NH2) | 88% | 
5 | CCCCCCCCCCCCCCCC(=O)N[C@@H](CCC(=O)N[C@@H](CCC(=O)N[C@@H](CCC(=O)N[C@@H](CCC(=O)NCCCC[C@H](NC(=O)COCCOCCNC(=O)COCCOCCNC(=O)COCCOCCNC(=O)[C@H](CCCCNC(C)=O)NC(=O)[C@H](CCCCN)NC(=O)[C@H](CCCNC(=N)N)NC(=O)[C@](C)(CCCCN)NC(=O)[C@H](CO)NC(=O)[C@](C)(Cc1c[nH]c2ccccc12)NC(=O)[C@@H](NC(=O)[C@H](CO)NC(=O)[C@H](CCCC)NC(=O)CNC(=O)[C@H](CCC(=O)O)NC(=O)C(C)(C)NC(=O)C(C)(C)NC(=O)[C@@H](NC(=O)[C@H](CCCCNC(C)=O)NC(=O)[C@H](C)NC(=O)[C@H](CCCNC(=N)N)NC(=O)[C@@H](NC(=O)[C@H](CCCCN)NC(=O)[C@H](CCC(=O)O)NC(=O)[C@H](CCCNC(=N)N)NC(=O)CNC(=O)[C@H](CCC(=O)O)NC(=O)[C@H](CC(C)C)NC(C)=O)C(C)C)[C@@H](C)CC)[C@@H](C)O)C(N)=O)C(=O)O)C(=O)O)C(=O)O)C(=O)O [compound 125] (Ac-LEGREKVRAK(Ac)I[Aib][Aib]EG[Nle]ST[αMeW]S[αMeK]RKK(Ac)[AEEA][AEEA][AEEA]K([γGlu-γGlu-γGlu-γGlu-Palmitoyl])-NH2) | 89% | 0.1 nM
6 | CCCCCCCCCCCCCCCCCC(=O)N[C@@H](CCC(=O)N[C@@H](CCC(=O)N[C@@H](CCC(=O)NCCOCCOCC(=O)NCCOCCOCC(=O)NCCOCCOCC(=O)NCCCC[C@H](NC(=O)[C@H](CCCCNC(C)=O)NC(=O)[C@H](C)NC(=O)[C@H](CCCNC(N)=O)NC(=O)C(C)(C)NC(=O)[C@H](CO)NC(=O)[C@H](Cc1c[nH]c2ccccc12)NC(=O)[C@@H](NC(=O)[C@H](CO)NC(=O)[C@H](CCCC)NC(=O)CNC(=O)[C@H](CCC(=O)O)NC(=O)C(C)(C)NC(=O)C(C)(C)NC(=O)[C@@H](NC(=O)[C@H](CCCCNC(C)=O)NC(=O)[C@H](C)NC(=O)[C@H](CCCNC(=N)N)NC(=O)[C@@H](NC(=O)[C@H](CCCCN)NC(=O)[C@H](CCC(=O)O)NC(=O)[C@H](CCCNC(=N)N)NC(=O)CNC(=O)[C@H](CCC(=O)O)NC(=O)[C@H](CC(C)C)NC(C)=O)C(C)C)[C@@H](C)CC)[C@@H](C)O)C(N)=O)C(=O)O)C(=O)O)C(=O)O [compound 126] (Ac-LEGREKVRAK(Ac)I[Aib][Aib]EG[Nle]STWS[Aib][Cit]AK(Ac)K([AEEA-AEEA-AEEA-γGlu-γGlu-γGlu-Stearoyl])-NH2) | 91% | 
7 | CCCCCCCCCCCCCCCCCC(=O)N[C@@H](CCC(=O)N[C@@H](CCC(=O)N[C@@H](CCC(=O)N[C@@H](CCC(=O)NCCOCCOCC(=O)NCCOCCOCC(=O)NCCOCCOCC(=O)NCCCC[C@H](NC(=O)[C@H](CCCCNC(C)=O)NC(=O)[C@H](CCCCN)NC(=O)[C@H](CCCNC(=N)N)NC(=O)C(C)(C)NC(=O)[C@H](CO)NC(=O)[C@H](Cc1c[nH]c2ccccc12)NC(=O)[C@@H](NC(=O)[C@H](CO)NC(=O)[C@H](CCCC)NC(=O)CNC(=O)[C@H](CCC(=O)O)NC(=O)C(C)(C)NC(=O)C(C)(C)NC(=O)[C@@H](NC(=O)[C@H](CCCCNC(C)=O)NC(=O)[C@H](C)NC(=O)[C@H](CCCNC(=N)N)NC(=O)[C@@H](NC(=O)[C@H](CCCCN)NC(=O)[C@H](CCC(=O)O)NC(=O)[C@H](CCCNC(=N)N)NC(=O)CNC(=O)[C@H](CCC(=O)O)NC(=O)[C@H](CC(C)C)NC(C)=O)C(C)C)[C@@H](C)CC)[C@@H](C)O)C(N)=O)C(=O)O)C(=O)O)C(=O)O)C(=O)O [compound 128] (Ac-LEGREKVRAK(Ac)I[Aib][Aib]EG[Nle]STWS[Aib]RKK(Ac)K([AEEA-AEEA-AEEA-γGlu-γGlu-γGlu-γGlu-Stearoyl])-NH2) | 91% | 0.22 nM
